Measurements as given in US20230236172A1, “T Cells That Respond To Patient Neoepitopes” (NantCell, Inc., priority 2020, published 2023).

System: T cells generated with E. coli expressed polytope
Assay: ELISPOT with in vitro translated epitope peptides on the polytope-generated T cell line (FIG. 10)
Type: cell-based, human
Experimental: An exemplary synthetic DNA template for creating neoepitope peptides in vitro is depicted below, and the corresponding sequences are shown in SEQ ID NO:18, SEQ ID NO:19, SEQ ID NO:20, and SEQ ID NO:21 respectively.
One template strand oligo per epitope plus sense strand universal promoter oligo was used. […] Rather the reaction required simply adding annealed oligos to expression mix, and the mixture was allowed to react for 2 hours.

| Sequence | Recognition of epitope by T cells in the T cell line |
| --- | --- |
| FMRPHERNGFTVLCPKNMIIKPGKI [E6] | recognized by T cells |
| WQAGILARNLVPMVATVQGQNLKYQ (IVT&T peptide9) | recognized by T cells |
